In patent US9498479B2, “Dihydropyrimidine compounds and their application in pharmaceuticals” (SUNSHINE LAKE PHARMA CO., LTD., priority 2013, dated 2016) one finds EC50 data, which are given here for five molecules.

This assay concerns HBV. Kind of assay: In-vitro anti-HBV activity in stable HBV-producing cell line (HepG2.2.15), HBV DNA in culture fluid by qPCR. In kind it is cell-based. Particulars: Hepatitis B virus, 168 h; HepG2.2.15 cells, HBV DNA in culture media on day 7, qPCR. The procedure:
Specific procedures are as follows:
HepG2.2.15 cells were seeded into each well of 96-well plates, 40,000 cells per well. Cells were treated with cell culture medium containing compounds with different concentrations 24 hours after cell seeding. The final concentration of each compound was 16.4 μM in each well and each compound was diluted to desired concentration using 3-fold gradient dilution protocol, 9 diluted points in duplicate. The culture mediums containing the compounds were refreshed on day 4 post cell seeding. Culture media were collected from the HepG2.2.15 plates on day 7 post cell seeding followed by HBV DNA extraction.
HBV DNA extraction: The HBV DNA extraction was performed using QIAamp 96 DNA Blood Kit (QIAGEN 51161).
PCR for quantification: PCR mix was prepared according to PCR system. PCR mix was dispensed to 96-well optical reaction plates (special for quantification). The standard diluted proportionally was added. Then the sample was added; The plates were sealed with optical adhesive film; PCR system was performed according to programs.
Percentage of HBV inhibition of DNA replication by compound was calculated using the following equation: % Inh.=[1-HBV DNA quantity of sample/HBV DNA quantity of DMSO control]*100.
Calculating EC50 value of compounds to HBV replication: the EC50 values were calculated based on “four-parameter logistic equation” and using GraphPad Prism 5 analysis software.
Background: In qPCR the cycle at which signal appears reflects the starting amount.
For orientation: EC50 means the midpoint of the concentration-response curve. Low readings indicate an effect from little substance, high ones a need for much substance. On to `COC(=O)C1=C(CN2CC(F)(F)C[C@@H]2CCC(=O)O)NC(c2nccs2)=N[C@H]1c1ccc(F)cc1Br` [Example 18, 3-((S)-1-(((R)-6-(2-bromo-4-fluorophenyl)-5-(methoxycarbonyl)-2-(thiazol-2-yl)-3,6-dihydropyrimidin-4-yl)methyl)-4,4-difluoropyrrolidin-2-yl)propanoic acid], for which the EC50 worked out at 0.014 µM.
To `CCOC(=O)C1=C(CN2CC(F)(F)C[C@H]2CCC(=O)O)NC(c2nccn2C)=NC1c1ccc(F)cc1Br` (stereo partly drawn) [Example 7, 3-((2R)-1-((6-(2-bromo-4-fluorophenyl)-5-(ethoxycarbonyl)-2-(1-methyl-1H-imidazol-2-yl)-3,6-dihydropyrimidin-4-yl)methyl)-4,4-difluoropyrrolidin-2-yl)propanoic acid] belongs 0.065 µM.
Then `CCOC(=O)C1=C(CN2CC(F)(F)C[C@@H]2CCC(=O)O)NC(c2nccs2)=N[C@H]1c1ccc(F)cc1Cl` [Example 19, 3-((S)-1-(((R)-6-(2-chloro-4-fluorophenyl)-5-(ethoxycarbonyl)-2-(thiazol-2-yl)-3,6-dihydropyrimidin-4-yl)methyl)-4,4-difluoropyrrolidin-2-yl)propanoic acid], with 0.02 µM.
Then `CCOC(=O)C1=C(CN2CC(F)(F)C[C@@H]2CCC(=O)O)NC(c2nccs2)=N[C@H]1c1ccc(Cl)cc1Cl` [Example 21, 3-((S)-1-(((R)-6-(2,4-dichlorophenyl)-5-(ethoxycarbonyl)-2-(thiazol-2-yl)-3,6-dihydropyrimidin-4-yl)methyl)-4,4-difluoropyrrolidin-2-yl)propanoic acid], with 0.009 µM.
The molecule `CCOC(=O)C1=C(CN2CC(F)(F)C[C@H]2CCC(=O)O)NC(c2nccs2)=N[C@H]1c1ccc(F)cc1Cl` [Example 12, 3-((R)-1-(((R)-6-(2-chloro-4-fluorophenyl)-5-(ethoxycarbonyl)-2-(thiazol-2-yl)-3,6-dihydropyrimidin-4-yl)methyl)-4,4-difluoropyrrolidin-2-yl)propanoic acid] displayed an EC50 of 0.098 µM.
